The text below walks through data of ChEMBL document CHEMBL1201862, “PubChem BioAssay data set” (2004).

Activity calls are given as the source filed them.

Test [1] addresses T1, Beta-lactamase (Pseudomonas aeruginosa, UniProt Q79MP6). Description: IMP-1 metallo-beta-lactamase inhibitors, dose response, selectivity assay for VIM-2 inhibitor project, biochemical, epi-absorbance (AID 1920).
In test [2] the target is Beta-lactamase (Salmonella choleraesuis (strain SC-B67), UniProt Q5J463). Description: Epi-absorbance-based counterscreen for selective VIM-2 inhibitors: dose response biochemical high throughput screening assay to identify inhibitors of TEM-1 serine-beta-lactamase. (A counterscreen serves to expose hits that act by an unwanted route or on another target.)
For test [3], the target named is T1, Beta-lactamase. Description: […] counterscreen for selective VIM-2 inhibitors: dose response biochemical high throughput screening assay to identify inhibitors of IMP-1 metallo-beta-lactamase.
Test [4] can be described thus: Luminescence Cell-Based Dose Response HTS to Identify Activators of Luciferase Translation or Activity in H4 […] Cells. [Related pubchem assays: 1829 (Project Summary), 1814 (Primary HTS)]. In kind it is functional.
Test [5] concerns H4. The test is described as follows: Luminescence Cell-Based Dose Response HTS to Identify Activators of 5'UTR Stem-Loop Driven Prion Protein mRNA Translation in H4 Neuroglioblastoma Cells. [Related pubchem assays: 1829 (Project Summary), 1814 (Primary HTS)]. The settings on record: Homo sapiens. It is filed as functional.
Test [6] relates to INS1. Description: beta cell apoptosis inhibitors, cytokine rescue, dose response, luminescence, retest (AID 449756).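 Also: cell death triggered by IL-1 beta plus TNF-alpha plus IFN-gamma mixture; protective hits raise ATP signal compared with cytokine alone wells.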 In kind it is functional, cell-based. The settings on record: Rattus norvegicus.
A short description of test [7]: HepG2 cell cytotoxicity, dose response, cytotoxicity control, ATP luminescence, cherry-pick, activator set 2 (AID 1053143). In kind it is functional, cell-based.
The nature of test [8]: Luminescence Cell-Based Dose Confirmation HTS to Identify Activators of 5'UTR Stem-Loop Driven Alpha-Synuclein mRNA Translation in H4 Neuroglioblastoma Cells. [Related pubchem assays: 1829 (Project Summary), 1814 (Primary HTS)]. In kind it is functional.
Test [9] concerns HEK293. The test is described as follows: cells. It is filed as functional, cell-based. The settings on record: Homo sapiens.
Test [10] is described as follows: Luminescence Cell-Based Dose Confirmation HTS to Identify Inhibitors of Platelet Dense Granule Release. [Related pubchem assays: 1663 (Primary HTS), 1678 (Summary of Project)]. It is filed as functional.
Test [11] in a line: cytotoxicity toward DRD oncogenic fibroblasts, dose response, cell-based, non-viral oncogenic, luminescence (AID 1934). The settings on record: Homo sapiens. It is filed as functional.
For test [12], the system named is BJ. Description: cytotoxicity toward BJ-TERT fibroblasts, dose response, cell-based, RAS-independent, luminescence (AID 1933). In kind it is functional. The settings on record: Homo sapiens.
Test [13] concerns the target Disintegrin and metalloproteinase domain-containing protein 17 (Homo sapiens, UniProt P78536). Description: exosite inhibitors of ADAM17, dose response, biochemical (AID 743260).
Test [14] concerns BJ. Description: cells. In kind it is functional, cell-based. The following applies: Homo sapiens.
For test [15], the system named is BJ. The test is described as follows: cytotoxicity toward BJ-TERT-LT-ST fibroblasts, dose response, cell-based, RAS-independent, luminescence (AID 1935).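 Also: BJ fibroblasts immortalized with TERT plus LT and ST oncogenes.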 The settings on record: Homo sapiens. In kind it is functional.
For test [16], the target named is Luciferin 4-monooxygenase (Photinus pyralis, UniProt P08659). Description: firefly luciferase enzyme inhibitors, dose response, biochemical, luminescence (AID 1891).
Test [17] can be described thus: ADAM10 protease inhibitors, dose response, selectivity assay for ADAM17 exosite inhibitor project, biochemical, FRET peptide substrate, recombinant human ADAM10 (AID 743259).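 Also: ADAM10 enzyme cleaving a FRET peptide substrate.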
For test [18], the target named is Nucleotide-binding oligomerization domain-containing protein 2 (Homo sapiens, UniProt Q9HC29). The test is described as follows: NOD2 signaling inhibitors, cell-based, luminescence, uHTS, HEK293 (AID 1566). In kind it is functional.
Test [19] relates to HEK293. The test is described as follows: cells. It is filed as functional, cell-based. The following applies: Homo sapiens. This is another data set of the same source.
Test [20] concerns HEK293. The test is described as follows: NOD1 signaling inhibitors, primary screen, cell-based, luminescence, uHTS (AID 1578). In kind it is functional. The following applies: Homo sapiens.
The test system of test [21] is HEK293. Description: cells. In kind it is functional, cell-based. The settings on record: Homo sapiens. This is another data set of the same source.
A short description of test [22]: HepG2 cell cytotoxicity, dose response, cytotoxicity control, ATP luminescence, cherry-pick, set 6 (AID 1053125). It is filed as functional, cell-based.
Test [23] in a line: cells. The settings on record: A549.
Test [24] in a line: cells. The following applies: HEK293.
Test [25] in a line: cells.
Test [26] is described as follows: control 3'UTR Renilla luciferase suppression, dose response, counter-screen for Shn3 inhibitor project, cell-based, Clone20-Shn3RL, cherry-picked (AID 624133). In kind it is functional.
Test [27] in a line: Shn3 3'UTR reporter inhibitors, dose response, cell-based, Clone20 osteoblasts, firefly luciferase, cherry-picked (AID 624132).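 Also: firefly luciferase luminescence from reporter carrying the Shn3 3'UTR in osteoblasts.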 In kind it is functional.
The nature of test [28]: Fluorescence-based cell-based high throughput dose response assay for inhibitors of the interaction of nucleotide-binding oligomerization domain containing 2 (NOD2) and the receptor-interacting serine-threonine kinase 2 (RIPK2). The settings on record: Homo sapiens. In kind it is functional.
Test [29] can be described thus: HEK293 cell cytotoxicity, dose response, cytotoxicity control, plate reader, cherry-picked samples (AID 743446). In kind it is functional, cell-based.
Test [30] deals with Beta Lactamase (Pseudomonas aeruginosa, UniProt Q932Y6). The test is described as follows: beta-lactamase reporter inhibitor potency, dose response, artefact control for NOD2-RIPK2 interaction inhibitor project, BLA reporter cells, FRET fluorescence (AID 651552). It is filed as functional, cell-based.
A short description of test [31]: HepG2 cell cytotoxicity, dose response, cytotoxicity control for Shn3 inhibitor project, CellTiter-Glo, cherry-picked (AID 624134). It is filed as functional, cell-based. (In general: In ATP-based viability assays light output follows the ATP content of the culture.)
Test [32] concerns the target T2, Protein skinhead-1 (Caenorhabditis elegans, UniProt P34707).
T2 sequence (P34707 whole entry): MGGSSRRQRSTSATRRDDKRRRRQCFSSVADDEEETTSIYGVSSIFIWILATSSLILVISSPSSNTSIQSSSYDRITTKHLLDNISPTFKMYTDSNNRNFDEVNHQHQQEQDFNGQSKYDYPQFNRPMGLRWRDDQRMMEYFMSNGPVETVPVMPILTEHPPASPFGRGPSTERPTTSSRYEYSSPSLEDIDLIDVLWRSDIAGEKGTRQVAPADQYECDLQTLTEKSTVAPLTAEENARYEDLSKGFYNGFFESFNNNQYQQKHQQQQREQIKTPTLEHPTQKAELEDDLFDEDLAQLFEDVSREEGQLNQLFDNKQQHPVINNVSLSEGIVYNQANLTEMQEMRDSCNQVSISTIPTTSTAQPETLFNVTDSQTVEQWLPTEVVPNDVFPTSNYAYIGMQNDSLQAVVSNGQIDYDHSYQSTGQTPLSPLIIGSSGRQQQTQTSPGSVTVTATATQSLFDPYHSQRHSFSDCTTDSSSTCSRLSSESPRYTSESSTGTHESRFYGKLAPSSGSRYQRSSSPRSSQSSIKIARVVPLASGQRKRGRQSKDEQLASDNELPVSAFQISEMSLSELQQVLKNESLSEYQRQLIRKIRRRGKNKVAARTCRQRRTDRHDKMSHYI
In kind it is functional.

The nature of test [33]: LGR2 antagonists, dose response, cell-based, HEK293, CRE-luciferase reporter, cherry pick, set 2 (AID 743343).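 Also: transfected cells were stimulated with diluted bursicon conditioned medium after compound addition.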 In kind it is functional. (In a reporter assay the amount or activity of a reporter protein is the signal.)
The nature of test [34]: MC4R antagonists, dose response, counter-screen for LGR2 antagonist project, cell-based, plate reader, cherry pick (AID 743444).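 Also: transfected HEK 293 cells stimulated with alpha-MSH peptide; potency of inhibitors of the alpha-MSH evoked signal.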 It is filed as functional.
Test [35] in a line: A549 cell cytotoxicity, dose response, cytotoxicity control, plate reader, cherry-pick, antagonist series (AID 743412). In kind it is functional, cell-based.
Test [36] in a line: HepG2 cell cytotoxicity, dose response, cytotoxicity control, plate reader, cherry-pick, antagonist series (AID 743416). It is filed as functional, cell-based.
The target in test [37] is Albumin (Bos taurus, UniProt P02769). Description: Counterscreen for inhibitors of T-cell receptor (TCR)-CD3 interaction: Fluorescence-based biochemical high throughput dose response assay to identify inhibitors of T-cell receptor (TCR)-CD3 interaction using a TAMRA-labeled BSA probe. It is filed as functional.
Test [38] is described as follows: miR-122 activators in hepatoma reporter cells, dose response, cell-based, Huh7 psiCHECK-miR122, Renilla luciferase, cherry-picked (AID 651956).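 Also: huh7 hepatoma cells stably carrying a psiCHECK-2 miR-122 sensor plasmid; renilla luciferase signal reporting endogenous miR-122 activity after 48 h compound exposure.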 In kind it is functional.
The nature of test [39]: HEK293T cytotoxicity, dose response, cytotoxicity control for miR-122 modulator project, cell-based, activator set, cherry-pick (AID 720690).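 Also: HEK293T human cells scored for general mammalian cytotoxicity.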 In kind it is functional.
Test [40] can be described thus: HEK293 Cytotoxicity Assay Measured in Cell-Based System Using Plate Reader - 7071-01_Inhibitor_Dose_CherryPick_Activity_Set2. In kind it is functional.
Test [41] can be described thus: Cryptococcus neoformans growth inhibition, dose response, Alamar Blue, cherry-picks (AID 686998). It is filed as functional, organism-based.
Test [42] has as its system HEK293. The test is described as follows: HEK293T cell cytotoxicity, dose response, cytotoxicity control, ATP luminescence, cherry-pick samples (AID 687005).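 Also: cells exposed to compound for 48 hours.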 In kind it is functional, cell-based. The following applies: Homo sapiens.
The target in test [43] is Galanin receptor type 3 (Homo sapiens, UniProt O60755). Description: Fluorescence-based cell-based primary high throughput dose response assay to identify antagonists of the Galanin Receptor 3 (GalR3). It is filed as functional.
Test [44] can be described thus: cells. It is filed as functional, cell-based. The following applies: HEK-CNG.

T1 sequence (Q79MP6 whole entry): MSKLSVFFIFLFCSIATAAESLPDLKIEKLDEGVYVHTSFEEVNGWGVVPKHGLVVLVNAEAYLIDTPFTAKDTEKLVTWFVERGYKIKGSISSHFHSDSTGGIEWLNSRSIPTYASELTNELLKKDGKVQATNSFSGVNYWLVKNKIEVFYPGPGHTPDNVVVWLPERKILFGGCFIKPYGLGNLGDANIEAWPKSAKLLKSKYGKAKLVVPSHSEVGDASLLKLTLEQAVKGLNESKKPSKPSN
Beta-lactamase (Salmonella choleraesuis (strain SC-B67), UniProt Q5J463), sequence (Q5J463 whole entry): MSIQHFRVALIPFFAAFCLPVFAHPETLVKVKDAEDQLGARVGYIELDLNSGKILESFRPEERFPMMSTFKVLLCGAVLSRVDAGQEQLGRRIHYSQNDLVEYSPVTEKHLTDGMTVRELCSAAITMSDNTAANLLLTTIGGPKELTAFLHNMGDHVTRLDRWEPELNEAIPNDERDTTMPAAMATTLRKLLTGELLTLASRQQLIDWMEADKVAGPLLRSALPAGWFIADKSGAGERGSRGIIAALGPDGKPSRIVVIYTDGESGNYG
Galanin receptor type 3, sequence (O60755 whole entry): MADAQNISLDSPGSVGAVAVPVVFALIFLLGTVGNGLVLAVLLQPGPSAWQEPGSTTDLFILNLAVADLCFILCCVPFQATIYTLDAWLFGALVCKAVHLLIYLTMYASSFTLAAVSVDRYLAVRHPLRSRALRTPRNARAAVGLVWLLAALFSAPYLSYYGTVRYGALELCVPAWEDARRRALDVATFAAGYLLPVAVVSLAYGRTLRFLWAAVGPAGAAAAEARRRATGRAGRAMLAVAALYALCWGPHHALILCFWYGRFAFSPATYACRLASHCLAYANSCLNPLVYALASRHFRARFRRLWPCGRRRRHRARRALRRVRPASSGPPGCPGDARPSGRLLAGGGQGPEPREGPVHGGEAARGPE
Albumin, sequence (P02769 whole entry): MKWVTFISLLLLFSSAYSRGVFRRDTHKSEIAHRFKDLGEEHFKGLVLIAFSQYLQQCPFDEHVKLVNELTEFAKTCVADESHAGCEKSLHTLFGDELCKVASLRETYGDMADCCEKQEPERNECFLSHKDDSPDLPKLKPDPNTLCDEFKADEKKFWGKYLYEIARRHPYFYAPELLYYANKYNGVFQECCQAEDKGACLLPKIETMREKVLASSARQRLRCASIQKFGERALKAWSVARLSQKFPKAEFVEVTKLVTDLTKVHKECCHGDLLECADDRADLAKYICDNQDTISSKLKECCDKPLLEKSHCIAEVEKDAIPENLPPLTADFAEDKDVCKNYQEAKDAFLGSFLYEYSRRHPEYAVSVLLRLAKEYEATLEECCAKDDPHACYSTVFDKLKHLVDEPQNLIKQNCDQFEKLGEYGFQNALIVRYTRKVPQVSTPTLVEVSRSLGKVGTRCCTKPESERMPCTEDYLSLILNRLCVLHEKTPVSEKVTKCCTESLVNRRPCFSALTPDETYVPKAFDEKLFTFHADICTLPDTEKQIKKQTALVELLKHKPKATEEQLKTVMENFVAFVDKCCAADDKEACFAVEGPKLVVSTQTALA
Disintegrin and metalloproteinase domain-containing protein 17, sequence (P78536 whole entry, the tested form may be a part): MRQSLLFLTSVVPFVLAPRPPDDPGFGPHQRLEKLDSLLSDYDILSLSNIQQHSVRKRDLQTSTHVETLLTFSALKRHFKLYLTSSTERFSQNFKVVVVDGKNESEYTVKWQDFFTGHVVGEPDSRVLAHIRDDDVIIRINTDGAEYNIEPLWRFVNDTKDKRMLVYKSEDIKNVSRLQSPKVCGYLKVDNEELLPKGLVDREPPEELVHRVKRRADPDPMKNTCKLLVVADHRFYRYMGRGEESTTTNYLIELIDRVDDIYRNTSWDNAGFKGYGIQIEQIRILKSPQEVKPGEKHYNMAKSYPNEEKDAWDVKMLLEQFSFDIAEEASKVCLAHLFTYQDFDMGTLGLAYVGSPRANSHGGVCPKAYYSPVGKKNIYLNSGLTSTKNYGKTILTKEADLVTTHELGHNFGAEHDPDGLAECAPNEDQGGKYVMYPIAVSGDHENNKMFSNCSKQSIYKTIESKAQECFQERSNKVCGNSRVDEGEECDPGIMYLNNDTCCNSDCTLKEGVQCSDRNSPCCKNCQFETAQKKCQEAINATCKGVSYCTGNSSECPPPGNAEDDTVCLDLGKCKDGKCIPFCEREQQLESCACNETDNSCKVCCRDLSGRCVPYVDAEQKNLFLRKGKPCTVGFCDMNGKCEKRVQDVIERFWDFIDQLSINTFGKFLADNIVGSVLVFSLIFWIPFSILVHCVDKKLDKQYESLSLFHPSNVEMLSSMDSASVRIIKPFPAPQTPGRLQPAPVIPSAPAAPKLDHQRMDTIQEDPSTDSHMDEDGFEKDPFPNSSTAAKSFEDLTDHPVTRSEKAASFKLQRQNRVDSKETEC
Nucleotide-binding oligomerization domain-containing protein 2, sequence (Q9HC29 whole entry, the tested form may be a part): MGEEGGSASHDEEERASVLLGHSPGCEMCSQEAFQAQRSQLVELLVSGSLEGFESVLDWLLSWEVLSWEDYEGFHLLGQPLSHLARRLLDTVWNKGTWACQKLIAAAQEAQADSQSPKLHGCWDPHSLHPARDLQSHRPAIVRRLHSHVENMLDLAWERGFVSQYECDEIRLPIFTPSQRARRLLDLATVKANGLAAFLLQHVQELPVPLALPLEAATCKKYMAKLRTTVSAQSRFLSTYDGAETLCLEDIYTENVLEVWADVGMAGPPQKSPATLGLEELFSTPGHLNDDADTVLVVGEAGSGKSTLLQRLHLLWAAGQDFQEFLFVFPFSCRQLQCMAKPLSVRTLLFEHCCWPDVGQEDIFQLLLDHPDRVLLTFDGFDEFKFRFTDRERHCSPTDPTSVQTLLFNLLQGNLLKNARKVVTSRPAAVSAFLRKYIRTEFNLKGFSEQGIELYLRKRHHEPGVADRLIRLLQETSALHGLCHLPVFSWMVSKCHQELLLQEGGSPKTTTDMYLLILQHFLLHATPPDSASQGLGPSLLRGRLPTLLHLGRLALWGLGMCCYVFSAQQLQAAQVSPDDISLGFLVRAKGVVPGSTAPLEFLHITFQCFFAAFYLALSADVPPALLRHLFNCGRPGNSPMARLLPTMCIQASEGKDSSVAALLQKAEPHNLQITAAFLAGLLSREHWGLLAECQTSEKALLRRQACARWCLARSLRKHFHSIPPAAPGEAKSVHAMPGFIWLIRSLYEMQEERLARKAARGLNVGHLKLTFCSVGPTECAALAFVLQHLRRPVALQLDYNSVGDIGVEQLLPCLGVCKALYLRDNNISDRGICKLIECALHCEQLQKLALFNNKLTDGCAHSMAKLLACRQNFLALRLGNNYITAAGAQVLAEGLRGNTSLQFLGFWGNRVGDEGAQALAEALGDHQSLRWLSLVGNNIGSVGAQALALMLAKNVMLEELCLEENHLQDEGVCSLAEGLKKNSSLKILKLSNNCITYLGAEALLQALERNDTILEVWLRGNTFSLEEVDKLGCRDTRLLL
Luciferin 4-monooxygenase, sequence (P08659 whole entry): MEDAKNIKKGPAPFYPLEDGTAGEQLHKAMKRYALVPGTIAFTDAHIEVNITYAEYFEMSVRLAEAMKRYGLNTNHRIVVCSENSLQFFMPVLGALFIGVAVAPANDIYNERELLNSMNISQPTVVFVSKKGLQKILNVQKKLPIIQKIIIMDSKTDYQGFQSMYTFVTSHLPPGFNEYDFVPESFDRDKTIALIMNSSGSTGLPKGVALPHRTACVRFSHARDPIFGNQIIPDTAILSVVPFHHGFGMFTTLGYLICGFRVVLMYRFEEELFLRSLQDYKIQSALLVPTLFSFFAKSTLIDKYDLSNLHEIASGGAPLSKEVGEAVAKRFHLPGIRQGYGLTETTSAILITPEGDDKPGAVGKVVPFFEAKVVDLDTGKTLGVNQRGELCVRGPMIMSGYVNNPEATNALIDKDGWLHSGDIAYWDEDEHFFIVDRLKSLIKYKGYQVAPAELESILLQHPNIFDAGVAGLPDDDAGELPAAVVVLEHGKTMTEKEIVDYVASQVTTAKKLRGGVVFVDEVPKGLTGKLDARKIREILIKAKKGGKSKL
Beta Lactamase, sequence (Q932Y6 whole entry): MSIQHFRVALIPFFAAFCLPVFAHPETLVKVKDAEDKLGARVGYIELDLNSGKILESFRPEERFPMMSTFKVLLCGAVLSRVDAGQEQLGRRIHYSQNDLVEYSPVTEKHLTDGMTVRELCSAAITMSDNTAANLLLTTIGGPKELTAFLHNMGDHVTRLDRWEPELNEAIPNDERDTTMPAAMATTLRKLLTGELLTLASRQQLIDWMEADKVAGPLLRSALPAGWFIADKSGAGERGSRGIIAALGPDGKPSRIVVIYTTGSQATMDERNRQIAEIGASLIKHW

One may read the IC50 as the point on the concentration scale where inhibition reaches its midpoint. For `O=Cc1c(O)nc2ccccc2c1NCc1ccc(Cl)cc1`, the IC50 in test [1], in [2] and in test [3] was > 59.6 µM (inactive) throughout.

Usually EC50 stands for the midpoint of the concentration-response curve. As usually defined, the AC50 is the concentration giving half of the maximal activity seen. Take `COc1ccc(C2CC(c3ccc4ccccc4c3OC(C)=O)=NN2C(C)=O)cc1` (centres undefined): the EC50 in [4] was 3.82 µM (active); in test [5], 0.456 µM (active); in test [8] it was 0.512 µM (active). Besides, the values for the AC50 in test [6] and in test [7] were 3.3 µM (active) and 26 µM (active), respectively.

As to `Cc1ccccc1S(=O)(=O)Cc1ccc(C(=O)N2CCN(c3cccc(C)c3C)CC2)o1`, the IC50 in test [9] was 10.5 µM (active); in [13] it was > 69.6 µM (inactive); in test [17], 11.7 µM (inactive); in test [19], > 20 µM (inactive); in test [21], 3.96 µM (active). The concentration giving a half-maximal response (EC50) was > 112 µM (not active) in test [10]; 4.95 µM (active) in test [11]; 11.1 µM (active) in test [12]; 10 µM (inconclusive) in test [14]; 4.92 µM (active) in test [15]; 28.5 µM (active) in test [16]. Also, the values for the EC50 in test [18] and in [20] were 10.8 µM (active) and 5.29 µM (active), respectively.

Turning to `Nc1c(C(=O)NCc2ccccc2)c2nc3ccccc3nc2n1CCCN1CCOCC1`, the AC50 was 17.1 µM (active) in test [22], 15.6 µM (active) in test [23], 25.2 µM (active) in test [24] and 32.1 µM (active) in test [25].

Turning to `O=C1NC2C(=CC(O)C(O)C2O)c2cc3c(c(O)c21)OCO3` (centres undefined), the AC50 in [26] was 0.431 µM (active); in test [27] it was < 0.26 µM (active); in test [29], 0.167 µM (active); in test [31] it was 59 µM (active); in test [33], 0.138 µM (active); in test [34] it was 0.161 µM (active). The AC50 in [35] is 0.17 µM (active); in test [36] it was 0.218 µM (active). Also, the results for the IC50 in [28], in test [30] and in [32] were 49.7 µM (inactive), 49.7 µM (inactive) and 24 µM (active), respectively.

On to `O=c1cc(-c2ccc(O)c(O)c2)oc2ccc3ccccc3c12`, for which the IC50 in test [37] is > 94.2 µM (inactive).

As for `CO[C@@H]1CN(C)C(=O)c2ccc(NC(=O)c3ccc(Oc4ccccc4)cc3)cc2OC[C@H](C)NC[C@@H]1C`, the AC50 in test [38] was 11.3 µM (active); in [39], 23.6 µM (active).

Regarding `COC(=O)C1=C(C)N(C)C(S)=NC1c1ccccc1` (centres undefined), the AC50 in test [40] was > 92 µM (inactive); in [41], 120 µM (active); in [42] it was > 92 µM (inactive).

For the compound `CCNCC(O)c1cccc(O)c1` (centres undefined) [ETILEFRINE], in test [43], the half-inhibitory concentration (IC50) is 1.33 µM (active). The EC50 in [44] was > 30 µM (inactive).
